{"source": "patent US20230226228A1", "about": "“POSITRON IMAGING TOMOGRAPHY IMAGING AGENT COMPOSITION AND METHOD FOR DETECTION OF BACTERIAL INFECTION” (priority 2020, published 2023)", "key": {"S. aureus Xen29 [1]": {"system": "S. aureus Xen29", "assay": "PET/CT imaging of rat triceps infection / sterile inflammation model (S. aureus Xen29)", "assay_type": "in vivo, Sprague-Dawley rats", "details": "180 min post tracer injection", "protocol": "FIG. 5. PET/CT imaging of rats infected in the right triceps with the bioluminescent Xen29 strain of S. aureus. (A) Experimental design. (B) 2-[^18F]F-ENB-derived radioactivity accumulates in the infected triceps (red arrow) but not the inflamed triceps (yellow arrow) at 3 h post tracer administration.\nFIG. 8. PET/CT imaging of 2-[^18F]F-NB in a rat model of S. aureus Xen29 infection. (A) Radiosynthesis of 2-[^18F]F-NB. (i) [^18F]potassium fluoride, Kryptofix222, potassium carbonate, dimethyl sulfoxide, r.t., 10 min; (ii) 2 M potassium hydroxide in H2O, 105° C., 10 min; Overall decay-corrected radiochemical yield: 26% (n=1).\nFIG. 10. Time activity curve (TAC) in infected triceps, inflamed triceps and blood and biodistribution of 2-[^18F]F-NB in major organs. (a) The right triceps of the rats were infected with S. aureus Xen 29 and the left triceps were injected with a 10-fold higher burden of heat-killed S. aureus to induce sterile inflammation. The rats were scanned by PET/CT for 120 min (rats with sterile inflammation in the left triceps) immediately starting from tracer administration. The PET scan was separated into ten frames (1-min) and twenty-two frames (5-min). TACs of infected triceps (blue), inflamed triceps (grey) and blood (left heart ventricle, red) are shown. Data represented as mean with standard error of the mean (n=4). (b) Time-dependent accumulation of 2-[^18F]F-NB in infected and inflamed triceps compared to the blood (left heart ventricle). Data are presented as the mean and standard error of the mean (n=4). […]\nS. aureus (Newman or Xen29) was cultured overnight by inoculating 5 μL of bacteria from a glycerol stock into 10 mL of fresh cation-adjusted Mueller-Hinton (CAMH) broth or tryptic soy broth (TSB). […] After imaging, the infected triceps were collected, homogenized in PBS using a hand-held homogenizer, and the bacterial burden at the time of imaging was determined by plating the muscle tissues onto solid MH medium. After overnight incubation at 37° C., CFUs were quantified by enumeration. […]"}, "[2]": {"assay": "In vivo metabolite analysis in blood and urine of healthy rats (radio-HPLC)", "parameters": "species or system Sprague-Dawley rats", "protocol": "FIG. 7. Analysis of metabolites in the plasma and urine of healthy rats after intravenous injection (IV) of 2-[^18F]F-ENB. After IV administration of 2-[^18F]F-ENB, the animals were sacrificed at each time point (n=3 rats) and the blood and urine samples were collected for radio-HPLC analysis. […] The percent of each metabolite in blood (B) and urine (C) is shown.\n2-[^18F]F-ENB (1 mCi) was injected via the tail vein into healthy female Sprague-Dawley rats (10 weeks old, Charles River). […] The mixture was centrifuged at 13 400 rpm for 5 min to remove the protein, and the supernatant and protein pellet were analyzed by gamma counter to determine the efficiency of extraction. […] The radioactive fractions corresponding to each cold standard were collected and analyzed using a gamma counter from which the percentage of each metabolite was calculated (n=3).\nAnalysis of the radioactive metabolites in the urine was performed using a similar procedure from samples obtained from the bladder 30 and 60 min after tracer injection. The urine was diluted with 45% MeCN/H2O, centrifuged at 13 400 rpm for 5 min and spiked with cold standards for radio-HPLC analysis."}, "S. aureus Xen29 [3]": {"system": "S. aureus Xen29", "assay": "PET imaging of infective endocarditis rat model", "assay_type": "in vivo, Sprague-Dawley rats", "details": "day-3 post infection, 60 min and 120 min post tracer injection", "source_text": "Female Sprague-Dawley rats (weight, ˜200 g, Charles River) were maintained in an anesthetized state with an isofluorane-oxygen gas mixture during surgery. A sterile polyethylene catheter was placed and positioned in the left ventricle through a small incision via the retrograde transcarotid artery approach.\nThe catheter was left in place throughout the experiments. At 24-hour post-catheterization, the rats were infected intravenously through the tail vein with an inoculum of S. aureus Xen29 of 10^6 CFU in 0.5 mL sterile saline. The animals were imaged for bioluminescence signal in the region of the hearts with IVIS daily after infection. The optimal BLI signal over the heart area was determined to be day-3 post inoculation (FIG. 15A and FIG. 16A)."}, "[4]": {"assay_type": "in vitro ADME, Sprague-Dawley rat", "details": "rat serum, 85 min incubation", "protocol": "FIG. 6. In vitro metabolic stability of 2-[^18F]F-ENB in rat and human plasma. (a-d) HPLC traces of metabolites of 2-[^18F]F-ENB incubated with rat plasma at different time points (2 min, 10 min, 30 min, 85 min) and spiked with cold standards.\n2-[^18F]F-ENB (600 μCi) was incubated with Sprague-Dawley rat plasma (5.0 mL) at 37° C. Subsequently, 0.4 mL aliquots of the plasma were taken 2, 10, 30, and 85 min after addition of the tracer, and 0.6 mL of MeCN was added to quench the metabolism. The mixture was centrifuged at 13 400 rpm for 10 min to remove proteins, and both the supernatant and the protein pellet were analyzed by gamma counting to calculate the extraction efficiency. […] The radioactive fractions corresponding to each cold standard were collected and radioactivity was quantified using a gamma counter from which the percentage of each metabolite was calculated."}, "S. aureus Xen36": {"system": "S. aureus Xen36", "assay": "PET imaging of prosthetic joint infection (PJI) mouse model", "assay_type": "in vivo, Balb/c mice", "details": "day-2 post infection, 60 min and 120 min post tracer injection", "protocol": "Balb/c mice was anesthetized by inhalation of a mixture of isofluorane and oxygen. A medical-grade stainless steel Kirschner wire was inserted into the distal part of the femur which has been exposed by dislocation of the patella and reamed with a 25-gauge needle. 2 μL of S. aureus Xen36 (4 log 10 CFU) will be inoculated into the knee joint and onto the wire before the surgical incision is closed with absorbable sutures. The correct position of the wire in the canal was performed with X-ray scan. The animals were imaged for bioluminescence signal in the region of the surgical joint with IVIS daily after infection. The optimal BLI signal over the joint area was determined to be day-2 post inoculation (FIG. 20A)."}}}
{"smiles": "CCOC(=O)c1ccc([N+](=O)[O-])cc1[18F]", "note": "[2-[^18F]F-ENB, Ethyl 2-[^18F]F-4-nitrobenzoate]", "values": [{"measurement": "localisation of radioactive signal", "setting": "S. aureus Xen29 [1]", "result": "predominantly observed in the infected triceps"}, {"measurement": "radioactive components in blood after IV administration", "setting": "[2]; blood at 5, 30 and 60 min", "result": "2-[^18F]F-NB was the predominant radioactive component at each time point"}, {"measurement": "radioactive components in urine after IV administration", "setting": "[2]; urine at 30 and 60 min post injection", "result": "the majority of the radioactive signal could be attributed to 2-[^18F]F-NB"}, {"measurement": "PET signal over the heart region", "setting": "S. aureus Xen29 [3]", "result": "a robust radioactive signal was detected over the heart region"}, {"measurement": "stability of the nitro group", "setting": "[4]", "result": "the nitro group was unaffected"}, {"measurement": "PET signal over the joint region", "setting": "S. aureus Xen36", "result": "a robust radioactive signal was detected over the joint region"}]}
